For two compounds, Normal melting temperature results are on record in the NIST ThermoML archive (doi:10.1016/j.tca.2008.03.014).

For this data set the following is noted: Crystal; DTA.

Each structure is given as a SMILES string. Numbers after ± are expanded uncertainties.

Turning to `[F-].[Rb+]` [rubidium fluoride (RbF)], the Normal melting temperature is 790.1 ± 1 °C. On to `[I-].[Rb+]` [rubidium iodide (RbI)], for which the Normal melting temperature was determined as 650.00 ± 1 °C.
